# Data as given in patent US20050197350A1, “Novel quinoline, tetrahydroquinazoline, and pyrimidine derivatives and methods of treatment related to the use thereof” (TAISHO PHARMACEUTICAL CO., LTD., priority 2003, published 2005).
# Test system: MCH receptors
# Experiment: MCH receptor activity class (method not given)
# Conditions: activity class 1-3: percent of control at 10^-7 M or IC50
row,SMILES,class
1,CC(C)[C@@H]1CC[C@@H](C)CC1OC(=O)N[C@H]1CC[C@@H](Nc2nc3c(c(N(C)C)n2)CCCC3)CC1 (stereo partly shown) [compound 1593],3 (Class 3 The value of percent of control at 10^−7 M was more than 60% or the value of IC50 was more than 200 nM.)
2,Cc1ccc(OC(=O)N[C@H]2CC[C@@H](Nc3nc4c(c(N(C)C)n3)CCCC4)CC2)cc1 [compound 1594],3 (Class 3 The value of percent of control at 10^−7 M was more than 60% or the value of IC50 was more than 200 nM.)
3,COC(=O)N[C@H]1CC[C@@H](Nc2nc3c(c(N(C)C)n2)CCCC3)CC1 [compound 1595],3 (Class 3 The value of percent of control at 10^−7 M was more than 60% or the value of IC50 was more than 200 nM.)
4,CN(C)c1nc(N[C@H]2CC[C@@H](NC(=O)OCc3ccccc3Cl)CC2)nc2c1CCCC2 [compound 1596],3 (Class 3 The value of percent of control at 10^−7 M was more than 60% or the value of IC50 was more than 200 nM.)
5,CN(C)c1nc(N[C@H]2CC[C@@H](NC(=O)OCC3c4ccccc4-c4ccccc43)CC2)nc2c1CCCC2 [compound 1597],3 (Class 3 The value of percent of control at 10^−7 M was more than 60% or the value of IC50 was more than 200 nM.)
6,CN(C)c1nc(N[C@H]2CC[C@@H](NC(=O)OCC(Cl)(Cl)Cl)CC2)nc2c1CCCC2 [compound 1598],3 (Class 3 The value of percent of control at 10^−7 M was more than 60% or the value of IC50 was more than 200 nM.)
7,CN(C)c1nc(N[C@H]2CC[C@@H](CNC(=O)OCCOCc3ccccc3)CC2)nc2c1CCCC2 [compound 1599],3 (Class 3 The value of percent of control at 10^−7 M was more than 60% or the value of IC50 was more than 200 nM.)
8,CN(C)c1nc(N[C@H]2CC[C@@H](CNC(=O)OCC(C)(C)C)CC2)nc2c1CCCC2 [compound 1600],3 (Class 3 The value of percent of control at 10^−7 M was more than 60% or the value of IC50 was more than 200 nM.)
9,COc1cc(COC(=O)NC[C@H]2CC[C@@H](Nc3nc4c(c(N(C)C)n3)CCCC4)CC2)c([N+](=O)[O-])cc1OC [compound 1601],3 (Class 3 The value of percent of control at 10^−7 M was more than 60% or the value of IC50 was more than 200 nM.)
10,CN(C)c1nc(N[C@H]2CC[C@@H](CNC(=O)Oc3cccc(C(F)(F)F)c3)CC2)nc2c1CCCC2 [compound 1602],3 (Class 3 The value of percent of control at 10^−7 M was more than 60% or the value of IC50 was more than 200 nM.)
11,CN(C)c1nc(N[C@H]2CC[C@@H](CNC(=O)Oc3ccc(Br)cc3)CC2)nc2c1CCCC2 [compound 1603],3 (Class 3 The value of percent of control at 10^−7 M was more than 60% or the value of IC50 was more than 200 nM.)
12,COc1ccccc1OC(=O)NC[C@H]1CC[C@@H](Nc2nc3c(c(N(C)C)n2)CCCC3)CC1 [compound 1604],3 (Class 3 The value of percent of control at 10^−7 M was more than 60% or the value of IC50 was more than 200 nM.)
13,COCCOC(=O)NC[C@H]1CC[C@@H](Nc2nc3c(c(N(C)C)n2)CCCC3)CC1 [compound 1605],3 (Class 3 The value of percent of control at 10^−7 M was more than 60% or the value of IC50 was more than 200 nM.)
14,CCCCCCCCOC(=O)NC[C@H]1CC[C@@H](Nc2nc3c(c(N(C)C)n2)CCCC3)CC1 [compound 1606],3 (Class 3 The value of percent of control at 10^−7 M was more than 60% or the value of IC50 was more than 200 nM.)
15,CCOC(=O)NC[C@H]1CC[C@@H](Nc2nc3c(c(N(C)C)n2)CCCC3)CC1 [compound 1607],3 (Class 3 The value of percent of control at 10^−7 M was more than 60% or the value of IC50 was more than 200 nM.)
16,CN(C)c1nc(NC2CCC(CNC(=O)OCc3ccc([N+](=O)[O-])cc3)CC2)nc2c1CCCC2 (stereo not shown) [compound 1608],3 (Class 3 The value of percent of control at 10^−7 M was more than 60% or the value of IC50 was more than 200 nM.)
17,CN(C)c1nc(N[C@H]2CC[C@@H](CNC(=O)Oc3ccc4ccccc4c3)CC2)nc2c1CCCC2 [compound 1609],3 (Class 3 The value of percent of control at 10^−7 M was more than 60% or the value of IC50 was more than 200 nM.)
18,C=CCOC(=O)NC[C@H]1CC[C@@H](Nc2nc3c(c(N(C)C)n2)CCCC3)CC1 [compound 1610],3 (Class 3 The value of percent of control at 10^−7 M was more than 60% or the value of IC50 was more than 200 nM.)
19,CN(C)c1nc(NC2CCC(CNC(=O)OCc3ccccc3)CC2)nc2c1CCCC2 (stereo not shown) [compound 1611],3 (Class 3 The value of percent of control at 10^−7 M was more than 60% or the value of IC50 was more than 200 nM.)
20,CN(C)c1nc(N[C@H]2CC[C@@H](CNC(=O)Oc3ccccc3)CC2)nc2c1CCCC2 [compound 1612],3 (Class 3 The value of percent of control at 10^−7 M was more than 60% or the value of IC50 was more than 200 nM.)
21,CC(C)[C@@H]1CC[C@@H](C)CC1OC(=O)NC[C@H]1CC[C@@H](Nc2nc3c(c(N(C)C)n2)CCCC3)CC1 (stereo partly shown) [compound 1613],3 (Class 3 The value of percent of control at 10^−7 M was more than 60% or the value of IC50 was more than 200 nM.)
22,Cc1ccc(OC(=O)NC[C@H]2CC[C@@H](Nc3nc4c(c(N(C)C)n3)CCCC4)CC2)cc1 [compound 1614],3 (Class 3 The value of percent of control at 10^−7 M was more than 60% or the value of IC50 was more than 200 nM.)

row,SMILES,class
1,COC(=O)NC[C@H]1CC[C@@H](Nc2nc3c(c(N(C)C)n2)CCCC3)CC1 [compound 1615],3 (Class 3 The value of percent of control at 10^−7 M was more than 60% or the value of IC50 was more than 200 nM.)
2,CN(C)c1nc(N[C@H]2CC[C@@H](CNC(=O)OCc3ccccc3Cl)CC2)nc2c1CCCC2 [compound 1616],3 (Class 3 The value of percent of control at 10^−7 M was more than 60% or the value of IC50 was more than 200 nM.)
3,CN(C)c1nc(N[C@H]2CC[C@@H](CNC(=O)OCC3c4ccccc4-c4ccccc43)CC2)nc2c1CCCC2 [compound 1617],3 (Class 3 The value of percent of control at 10^−7 M was more than 60% or the value of IC50 was more than 200 nM.)
4,CN(C)c1nc(N[C@H]2CC[C@@H](CNC(=O)OCC(Cl)(Cl)Cl)CC2)nc2c1CCCC2 [compound 1618],3 (Class 3 The value of percent of control at 10^−7 M was more than 60% or the value of IC50 was more than 200 nM.)
5,CN(C)c1ccnc(N[C@H]2CC[C@@H](NC(=O)OCCOCc3ccccc3)CC2)n1 [compound 1619],3 (Class 3 The value of percent of control at 10^−7 M was more than 60% or the value of IC50 was more than 200 nM.)
6,CN(C)c1ccnc(N[C@H]2CC[C@@H](NC(=O)OCC(C)(C)C)CC2)n1 [compound 1620],3 (Class 3 The value of percent of control at 10^−7 M was more than 60% or the value of IC50 was more than 200 nM.)
7,"COc1cc(COC(=O)NC2CCC(Nc3nccc(N(C)C)n3)CC2)c([N+](=O)[O-])cc1OC (stereo not shown) [compound 1621, [4-(4-Dimethylamino-pyrimidin-2-ylamino)-cyclohexyl]-carbamid acid 4,5-dimethoxy-2-nitro-benzyl ester]",3 (Class 3 The value of percent of control at 10^−7 M was more than 60% or the value of IC50 was more than 200 nM.)
8,CN(C)c1ccnc(N[C@H]2CC[C@@H](NC(=O)Oc3cccc(C(F)(F)F)c3)CC2)n1 [compound 1622],3 (Class 3 The value of percent of control at 10^−7 M was more than 60% or the value of IC50 was more than 200 nM.)
9,CN(C)c1ccnc(N[C@H]2CC[C@@H](NC(=O)Oc3ccc(Br)cc3)CC2)n1 [compound 1623],3 (Class 3 The value of percent of control at 10^−7 M was more than 60% or the value of IC50 was more than 200 nM.)
10,COc1ccccc1OC(=O)N[C@H]1CC[C@@H](Nc2nccc(N(C)C)n2)CC1 [compound 1624],3 (Class 3 The value of percent of control at 10^−7 M was more than 60% or the value of IC50 was more than 200 nM.)
11,COCCOC(=O)N[C@H]1CC[C@@H](Nc2nccc(N(C)C)n2)CC1 [compound 1625],3 (Class 3 The value of percent of control at 10^−7 M was more than 60% or the value of IC50 was more than 200 nM.)
12,CCCCCCCCOC(=O)N[C@H]1CC[C@@H](Nc2nccc(N(C)C)n2)CC1 [compound 1626],3 (Class 3 The value of percent of control at 10^−7 M was more than 60% or the value of IC50 was more than 200 nM.)
13,CCOC(=O)N[C@H]1CC[C@@H](Nc2nccc(N(C)C)n2)CC1 [compound 1627],3 (Class 3 The value of percent of control at 10^−7 M was more than 60% or the value of IC50 was more than 200 nM.)
14,CN(C)c1ccnc(N[C@H]2CC[C@@H](NC(=O)OCc3ccc([N+](=O)[O-])cc3)CC2)n1 [compound 1628],3 (Class 3 The value of percent of control at 10^−7 M was more than 60% or the value of IC50 was more than 200 nM.)
15,CN(C)c1ccnc(N[C@H]2CC[C@@H](NC(=O)Oc3ccc4ccccc4c3)CC2)n1 [compound 1629],3 (Class 3 The value of percent of control at 10^−7 M was more than 60% or the value of IC50 was more than 200 nM.)
16,C=CCOC(=O)N[C@H]1CC[C@@H](Nc2nccc(N(C)C)n2)CC1 [compound 1630],3 (Class 3 The value of percent of control at 10^−7 M was more than 60% or the value of IC50 was more than 200 nM.)
17,CN(C)c1ccnc(N[C@H]2CC[C@@H](NC(=O)OCc3ccccc3)CC2)n1 [compound 1631],3 (Class 3 The value of percent of control at 10^−7 M was more than 60% or the value of IC50 was more than 200 nM.)
18,CN(C)c1ccnc(N[C@H]2CC[C@@H](NC(=O)Oc3ccccc3)CC2)n1 [compound 1632],3 (Class 3 The value of percent of control at 10^−7 M was more than 60% or the value of IC50 was more than 200 nM.)
19,CC(C)[C@@H]1CC[C@@H](C)CC1OC(=O)N[C@H]1CC[C@@H](Nc2nccc(N(C)C)n2)CC1 (stereo partly shown) [compound 1633],3 (Class 3 The value of percent of control at 10^−7 M was more than 60% or the value of IC50 was more than 200 nM.)
20,Cc1ccc(OC(=O)N[C@H]2CC[C@@H](Nc3nccc(N(C)C)n3)CC2)cc1 [compound 1634],3 (Class 3 The value of percent of control at 10^−7 M was more than 60% or the value of IC50 was more than 200 nM.)
21,COC(=O)N[C@H]1CC[C@@H](Nc2nccc(N(C)C)n2)CC1 [compound 1635],3 (Class 3 The value of percent of control at 10^−7 M was more than 60% or the value of IC50 was more than 200 nM.)
